From patent publication US20090203671A1, “METHOD OF TREATING CANCER” (ABBOTT LABORATORIES, priority 2007, published 2009)

B1: TRAIL: tumor necrosis factor (TNF)-related apoptosis inducing ligand; binds death receptors DR4 and DR5 (protein, UniProt P50591 1-281, looked up)
Tumor necrosis factor ligand …: MAMMEVQGGPSLGQTCVLIVIFTVLLQSLCVAVTYVYFTNELKQMQDKYSKSGIACFLKEDDSYWDPNDEESMNSPCWQVKWQLRQLVRKMILRTSEETISTVQEKQQNISPLVRERGPQRVAAHITGTRGRSNTLSSPNSKNEKALGRKINSWESSRSGHSFLSNLHLRNGELVIHEKGFYYIYSQTYFRFQEEIKENTKNDKQMVQYIYKYTSYPDPILLMKSARNSCWSKDAEYGLYSIYQGGIFELKENDRIFVSVTNEHLIDMDHEASFFGAFLVG

Assays:
[1] = tested on: D54MG glioblastoma multiforme cell line; assay: Cell proliferation assay (CellTiter-Glo), Aurora inhibitor combined with TRAIL; assay type: cell-based; details: Aurora inhibitor at 1 μM combined with TRAIL, 72 h, FIG. 1
Method: Cells were seeded into 96-well plates at 2,500 cells per well and allowed to adhere overnight. Compounds and TRAIL were added the following day, and cells were incubated at 37° C. for 72 h. […] Percent inhibition of viability was determined relative to cells treated with DMSO alone (0.1%). Data are representative of at least three independent experiments with each data point carried out in triplicate.

[2] = tested on: glioma cell lines where DR5 was induced; assay: TRAIL-mediated apoptosis in glioma cell lines after polyploidization; assay type: cell-based; details: glioma cell lines where DR5 was induced following polyploidization
Method: To identify candidate apoptosis-sensitizing genes that could be exploited in combination with Aurora kinase inhibitors in malignant glioma, global gene expression analysis in a D54MG glioma cell derivative treated with three Aurora kinases inhibitors chosen for their distinctive selectivities was carried out: MLN8054 (4-((9-chloro-7-(2,6-difluorophenyl)-5H-pyrimidol[5,4-d][2]benzazepin-2-yl)amino)benzoic acid, Aurora-A-selective), AZD1152-HQPA (Aurora-B-selective), and VX-680 (Aurora-A/B). This analysis identified the TRAIL death receptor, DR5, as an apoptosis sensitizing gene induced selectively following inhibition of Aurora-B kinase cancer cells. In glioma cell lines where DR5 was induced following polyploidization, the sensitivity, kinetics, and magnitude of TRAIL-mediated apoptosis were enhanced.

Row | Molecule | anti-proliferative effect of combination with TRAIL [1] | sensitivity, kinetics, and magnitude of TRAIL-mediated apoptosis [2]
1 | CCN(CCO)CCCOc1ccc2c(Nc3cc(CC(=O)Nc4cccc(F)c4)[nH]n3)ncnc2c1 [AZD 1152-HQPA] | synergistic anti-proliferative effects | 
2 | O=C(O)c1ccc(Nc2ncc3c(n2)-c2ccc(Cl)cc2C(c2c(F)cccc2F)=NC3)cc1 [MLN-8054, 4-((9-chloro-7-(2,6-difluorophenyl)-5H-pyrimidol[5,4-d][2]benzazepin-2-yl)amino)benzoic acid] | synergistic anti-proliferative effects | 
3 | Cc1cc(Nc2cc(N3CCN(C)CC3)nc(Sc3ccc(NC(=O)C4CC4)cc3)n2)n[nH]1 [VX-680/MK0457] | synergistic anti-proliferative effects | 
4 | B1 |  | enhanced
